# Data as given in patent publication US11738072B2, “Tumor vaccine and uses thereof” (WestVac Biopharma Co., Ltd., priority 2017, dated 2023).
# Experiments:
# [1] = tested on: A549 cells; assay: A549 cell death test by PI-AnnexinV (fluorescence microscope); type: cell-based; settings: A549, 24 h; complex mass ratio 1:6
# Description: A549 cells in the logarithmic growth phase were prepared into single cell suspension, inoculated into a 6-well plate as per approximately 1×10^5 cells per well. Then, 2 ml of medium was added to each well and cultured in a 5% CO2 incubator at 37° C. for 24-36 h.
# a. 5 mg/ml of pMVA-1 plasmid vector solution was added to 100 μl of 1640 serum-free medium for preparing a pMVA-1 plasmid vector control group;
# b. 1 mg/ml of DOTAP cationic lipid was dissolved in 100 μl of 1640 serum-free medium for preparing a DOTAP cationic lipid control group;
# c. the pMVA-1/DOTAP complex with a mass ratio of 1:6 prepared in Example 5 was dissolved in 100 μl of 1640 serum-free medium for preparing a pMVA-1/DOTAP complex experimental group.
# Some of the medium was pipetted from the 6-well plate in Step (1) until the medium in each well reached 900 μl. The pMVA-1/DOTAP complex (pMVA-DOTAP) (prepared in Step (2)) of the experimental group as well as the pMVA-1 plasmid vector (PMVA) and DOTAP cationic lipid (DOTAP) of the control group was added to A549 cells cultured in Step (1) respectively to make the total volume of 1 ml. At the same time, a blank control group containing only medium was made, and incubated in a 5% of CO2 incubator at 37° C. for 24 h. […]
# The cells stained with PI and Annexin V in Step (4) were washed once with PBS and observed under a fluorescence microscope. […]
# [2] = tested on: A549 cells; assay: Mitochondrial membrane potential by TMRM, flow cytometry; type: cell-based; settings: A549, 15-24 h
# Description: (§1) (1) Inoculation of tumor cells in plates: A549 cells and CT26 cells in the logarithmic growth phase were prepared into a cell suspension respectively, inoculated into a 6-well plate as per 1×10^5 cells/well, 2 ml of medium was added to each well, and cultured overnight in a 5% CO2 incubator at 37° C.
# (§2) (2) Different samples added to act on tumor cells: the pMVA-1 plasmid, the DOTAP cationic lipid and the pMVA-1/DOTAP complex were added to the tumor cells cultured in Step (1) respectively, and incubated at 37° C. for 15 h, 18 h, 21 h and 24 h.
# (§3) (3) Preparation of TMRM dyeing working fluid (made by Life Technologies): the TMRM mother liquor was diluted with PBS at a ratio of 1:100000 to obtain the TMRM dyeing working fluid. […]
# (§4) (5) The tumor cells in Step (4) were collected and treated with different samples for different times, and the tumor cells with mitochondrial membrane potential changes were analyzed by flow cytometry.
# (§5) As a potentiometric fluorescence probe, tetramethylrhodamine methyl ester (TMRM) entered the cells and was cleaved by cell lactonase to produce tetramethylrhodamine, indicating strong fluorescence after they had entered mitochondria. […] Therefore, the open state of mitochondrial membrane channel pores can be verified by testing the changes of fluorescence intensity in mitochondria of tumor cells.
# [3] = tested on: CT26 cells; assay: as above; type: cell-based, mouse; settings: CT26, 15-24 h
# Description: as §1, §2, §3, §4, §5
# [4] = tested on: bone marrow-derived dendritic cells (BMDC); assay: FITC-Dextran uptake by BMDC, flow cytometry; type: cell-based, mouse; settings: BMDC stimulated 24 h by CT26 cells treated with sample
# Description: a. Bone marrow cells were obtained from the femur and tibia of mouse, sieved and collected in a centrifuge tube, centrifuged at 280 g and at room temperature for 5 min, and the supernatant was discarded.
# b. 10 ml of red cell lysate was added to the cells described in Step a, standing for 3 min at room temperature, centrifuged at 280 g and at room temperature for 5 min, and the supernatant was discarded.
# c. The bone marrow cells described in Step b were washed twice with PRMI-1640 medium, centrifuged at 280 g and at room temperature for 10 min, live cell count was carried out, the cell concentration was adjusted to 1×10^6 cells/ml by RPMI-1640 complete medium.
# d. In Step c, the recombinant mouse GM-CS with a final concentration of 10 ng/ml was added and 4 ml/well cell suspension was inoculated into a 6-well plate, and cultured in a 37° C., 5% CO2 incubator. When cell colonies grew on the bottom of the plate, the medium was pipetted, washed once with the medium, and 1640 complete medium containing 10 ng/ml of GM-CSF was added to each well.
# e. […]
# d. Test and analysis of fluorescence intensity of BMDC based on flow cytometry.
# [5] = tested on: mouse cervical cancer cell line U14; assay: Mice U14 subcutaneous model, complex combined with chemotherapy; type: in vivo, C57 female mice; settings: U14 sc
# Description: C57 female mice aged 6-8 weeks were raised. The mouse cervical cancer cell line U14 cultured to the logarithmic growth phase was prepared into a cell suspension and the cell density was 2×10^7/ml. Experimental animals were subcutaneously injected on the right back, with an injection system of 100 μl per mouse. When the tumor could be palpated (tumor volume is about 4 mm×4 mm×3 mm, i.e. the 5th day after inoculation), the mice were randomly divided into 6 groups, and administrated every 3 days for a total of 8 times according to the grouping and treatment scheme in Table 16. The tumor volume was measured every three days. After administration for 8 times, the mice were killed and subcutaneous tumors were dissected for examination.
# Wherein, the administration volume is 100 μl per mouse, DDP is intraperitoneally administrated once a week. DDP is Cisplatin and LP is pMVA-1/DOTAP complex.
structure (smiles),measurement,setting,value
"CCCCCCCC/C=C\CCCCCCCC(=O)OCC(C[N+](C)(C)C)OC(=O)CCCCCCC/C=C\CCCCCCCC (centres unmarked) [DOTAP, 1,2-dioleoyl-3-trimethylammonium-propane]",PI-positive and AnnexinV-positive cells,[1],did not indicate obvious PI uptake and AnnexinV-labeled positive cells
same,mitochondrial membrane potential,[2],did not change significantly
same,mitochondrial membrane potential,[3],did not change significantly
same,FITC average fluorescence intensity of CD11c positive DC,[4],decreased significantly
same,lymphocyte infiltration in tumor tissue,[5],less common
